In PubChem BioAssay (NCI) one finds TGI and GI50 data, which are given here for eleven compounds.

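Cultured in 96-well plates, cells were exposed to test compound for 48 hours across five concentrations. Here, GI50 denotes the concentration required for 50% inhibition of growth. TGI: total growth inhibition.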 Bounds are passed on as bounds.

Among the test systems are ACHN renal; EKVX NSCLC; HCC-2998 colon; HL-60(TB) leukemia; MALME-3M melanoma; NCI-H460 lung; OVCAR-5 ovarian; UO-31 renal; MCF7 breast; T-47D breast.
Assay in all cases: inhibition of tumour cell growth, NCI panel, 48 h

With `Cc1oc2c(C)c3oc(=O)cc(C)c3cc2c1CNC(=O)[C@@H]1OCCOCCOCCOCCOCCOC1C(=O)O` (stereo partly specified), the TGI with ACHN renal, in the assay with EKVX NSCLC, with HCC-2998 colon, in the assay on HL-60(TB) leukemia, with MALME-3M melanoma and with NCI-H460 lung was over 100 µM in each case. The TGI in the assay on OVCAR-5 ovarian and in the assay with UO-31 renal was over 100 µM throughout.
`O=c1c2ccccc2c(Br)c(Br)c2ccccc12`: the GI50 in the assay with ACHN renal is 7.46 µM; in the assay on EKVX NSCLC, 14.2 µM; with HCC-2998 colon, 17.3 µM; in the assay on MALME-3M melanoma it was 2.66 µM; in the assay with MCF7 breast, 5.6 µM; with NCI-H460 lung it was 14.5 µM. Besides, the GI50 with OVCAR-5 ovarian was 30.2 µM; in the assay on T-47D breast, 4.43 µM; in the assay on UO-31 renal, 1.9 µM. The TGI in the assay on ACHN renal stood at 21.9 µM; in the assay on EKVX NSCLC, 64.3 µM; with HCC-2998 colon, 35.8 µM; in the assay on MALME-3M melanoma it was 7.65 µM; in the assay on MCF7 breast, 46.1 µM; in the assay on NCI-H460 lung, 34.5 µM. For the same compound, the TGI was over 100 µM in the assay on OVCAR-5 ovarian, 32.3 µM with T-47D breast and 3.44 µM in the assay on UO-31 renal.
Take `CC1(Cl)CC2OC3(Br)C=CC(C)(O)C2(CC1Br)C3(C)C` (stereo unspecified): the TGI with ACHN renal, with EKVX NSCLC, in the assay with HCC-2998 colon, with HL-60(TB) leukemia, in the assay on MALME-3M melanoma and in the assay with NCI-H460 lung was over 100 µM throughout. The TGI with OVCAR-5 ovarian and with UO-31 renal was over 100 µM in each case.
As for `N#C/C(=N\Nc1ccc(Cl)cc1)C(=O)Nc1cc(-c2ccccc2)nn1-c1ccccc1`, the GI50 in the assay on ACHN renal is 2.84 µM; in the assay with EKVX NSCLC, 2.64 µM; with HCC-2998 colon, 3.74 µM; with HL-60(TB) leukemia, 3.05 µM; with NCI-H460 lung it was 2.51 µM; with OVCAR-5 ovarian, 3 µM. In addition, the GI50 was 2.01 µM in the assay with T-47D breast and 2.93 µM with UO-31 renal. The TGI with ACHN renal was over 100 µM; with EKVX NSCLC, over 100 µM; with HCC-2998 colon, over 100 µM; in the assay on HL-60(TB) leukemia, 9.38 µM; in the assay with NCI-H460 lung, over 100 µM; with OVCAR-5 ovarian, over 100 µM. In addition, the TGI in the assay on T-47D breast was 7.12 µM; in the assay with UO-31 renal, over 100 µM.
In the case of `CC[O-].CC[O-].O=C([CH-]C(=O)c1cccnc1)c1ccccc1.O=C([CH-]C(=O)c1cccnc1)c1ccccc1.[Ti+4]`, the GI50 was 53.4 µM in the assay with ACHN renal; over 100 µM in the assay on EKVX NSCLC; over 100 µM with HCC-2998 colon; 27.9 µM in the assay on HL-60(TB) leukemia; over 100 µM with MALME-3M melanoma; 31.2 µM in the assay with NCI-H460 lung. In addition, the GI50 with OVCAR-5 ovarian and in the assay with UO-31 renal was over 100 µM each time. Besides, the TGI in the assay on ACHN renal is over 100 µM; in the assay on EKVX NSCLC, over 100 µM; with HCC-2998 colon, over 100 µM; with HL-60(TB) leukemia it was 85 µM; with MALME-3M melanoma, over 100 µM; in the assay with NCI-H460 lung it was over 100 µM. Besides, the TGI in the assay on OVCAR-5 ovarian and in the assay on UO-31 renal was over 100 µM each time.
Regarding `O=c1cc(-c2ccccc2)oc2cc(O)c(O)c(O)c12`, the GI50 in the assay with ACHN renal is 9.32 µM; with EKVX NSCLC, 18.9 µM; in the assay with HCC-2998 colon, 15 µM; with HL-60(TB) leukemia it was 55.1 µM; in the assay with NCI-H460 lung, 7.99 µM; in the assay on OVCAR-5 ovarian it was 30 µM. Further, the GI50 in the assay on T-47D breast is 23.7 µM; in the assay on UO-31 renal, 13.9 µM. Also, the TGI was over 100 µM in the assay with ACHN renal; 63.3 µM in the assay on EKVX NSCLC; 37.9 µM with HCC-2998 colon; over 100 µM in the assay on HL-60(TB) leukemia; over 100 µM in the assay on NCI-H460 lung; 88.5 µM in the assay with OVCAR-5 ovarian. For the same compound, the TGI in the assay with T-47D breast and in the assay on UO-31 renal was over 100 µM each time.
In the case of `O=S(=O)(N/N=C/c1ccc(Cl)c(Cl)c1)c1ccccc1`, the TGI in the assay on ACHN renal, in the assay on EKVX NSCLC, with HCC-2998 colon, in the assay on HL-60(TB) leukemia, in the assay on MALME-3M melanoma and in the assay with OVCAR-5 ovarian was over 100 µM each time. The same compound had a TGI in the assay with UO-31 renal of 94.2 µM.
In the case of `COc1cc2c3c(n(CCCN(CCN)CCCn4c5c(c6cc(OC)c(OC)cc6c4=O)C(=O)c4cc6c(cc4-5)OCO6)c(=O)c2cc1OC)-c1cc2c(cc1C3=O)OCO2`, the GI50 with ACHN renal was 0.376 µM; in the assay with EKVX NSCLC, 11.9 µM; in the assay with HCC-2998 colon it was 0.407 µM; with MCF7 breast, 0.376 µM; in the assay with NCI-H460 lung, 0.469 µM; in the assay with OVCAR-5 ovarian, 3.78 µM. Besides, the GI50 in the assay on T-47D breast was 0.457 µM; in the assay on UO-31 renal it was 0.892 µM. In addition, the TGI with ACHN renal was 3.02 µM; with EKVX NSCLC, over 62.6 µM; with HCC-2998 colon, 5.98 µM; in the assay with MCF7 breast, over 36 µM; in the assay on NCI-H460 lung, 13.6 µM; with OVCAR-5 ovarian it was 18.9 µM. In addition, the TGI in the assay with T-47D breast is over 100 µM; in the assay with UO-31 renal it was 8.18 µM.
With `C/C=C/C1=C(Cl)C(=O)[C@@H](Cl)[C@@]1(O)C(=O)OC`, the TGI with ACHN renal came out at 6.59 µM; in the assay with EKVX NSCLC, 9.27 µM; in the assay on HCC-2998 colon, 8.84 µM; in the assay with HL-60(TB) leukemia, 4.28 µM; with MALME-3M melanoma, 6.21 µM; in the assay with MCF7 breast it was 3.89 µM. In addition, the TGI stood at 15.2 µM in the assay with NCI-H460 lung, 24.5 µM in the assay with OVCAR-5 ovarian and 10.2 µM with UO-31 renal.
As for `CC1=C(/C=C/C(=O)O)C(C)(C)CCC1`, the TGI with ACHN renal, with EKVX NSCLC, with HCC-2998 colon, in the assay with HL-60(TB) leukemia, in the assay on MALME-3M melanoma and with MCF7 breast was over 100 µM in each case. Besides, the TGI with NCI-H460 lung, in the assay on OVCAR-5 ovarian and with UO-31 renal was over 100 µM throughout.
With `CN(C)CCN(C)CC1COC(C)(C)O1` (stereo unspecified), the TGI with ACHN renal, with EKVX NSCLC, with HCC-2998 colon, with HL-60(TB) leukemia, in the assay with MALME-3M melanoma and in the assay on NCI-H460 lung was over 100 µM in each case. Further, the TGI in the assay with OVCAR-5 ovarian and with UO-31 renal was over 100 µM in each case.
